Source: patent publication US9707229B2, “Compositions and methods for treating an infection” (CMPD LICENSING, LLC, priority 2015, dated 2017)

Columns and labels:
Type in all cases: cell-based
Candida species = assay: Expected efficacy of antifungal agents
Bacteroides fragilis = assay: Expected efficacy of antibiotic agents; conditions: Gram: anaer
Chlamydia pneumoniae = assay: Expected efficacy of antibiotic agents; conditions: Gram: n/a
Bartonella bacilliformis = assay: Expected efficacy of antibiotic agents; conditions: Gram: neg
Campylobacter jejuni = assay: Expected efficacy of antibiotic agents; conditions: Gram: neg
Citrobacter diversus = assay: Expected efficacy of antibiotic agents; conditions: Gram: neg
Citrobacter freundii = assay: Expected efficacy of antibiotic agents; conditions: Gram: neg
Enterobacter aerogenes = assay: Expected efficacy of antibiotic agents; conditions: Gram: neg
Escherichia coli = assay: Expected efficacy of antibiotic agents; conditions: Gram: neg
Francisella tularensis = conditions: expected efficacy; Gram: neg
Haemophilus influenzae = assay: Expected efficacy of antibiotic agents; conditions: Gram: neg
[1] = tested on: Haemophilus parainfluenzae; assay: Expected efficacy of antibiotic agents; conditions: Gram: neg
Klebsiella oxytoca = assay: Expected efficacy of antibiotic agents; conditions: Gram: neg
Klebsiella pneumoniae = assay: Expected efficacy of antibiotic agents; conditions: Gram: neg
Legionella pneumophila = conditions: expected efficacy; Gram: neg
Moraxella catarrhalis = assay: Expected efficacy of antibiotic agents; conditions: Gram: neg
Morganella morganii = assay: Expected efficacy of antibiotic agents; conditions: Gram: neg
Neisseria gonorrhoeae = assay: Expected efficacy of antibiotic agents; conditions: Gram: neg
Neisseria meningitidis = assay: Expected efficacy of antibiotic agents; conditions: Gram: neg
Proteus mirabilis = assay: Expected efficacy of antibiotic agents; conditions: Gram: neg
Proteus vulgaris = assay: Expected efficacy of antibiotic agents; conditions: Gram: neg
Providencia rettgeri = assay: Expected efficacy of antibiotic agents; conditions: Gram: neg
Providencia stuartii = assay: Expected efficacy of antibiotic agents; conditions: Gram: neg
Pseudomonas aeruginosa = assay: Expected efficacy of antibiotic agents; conditions: Gram: neg
Pseudomonas fluorescens = assay: Expected efficacy of antibiotic agents; conditions: Gram: neg
Rickettsiae = conditions: expected efficacy; Gram: neg
Salmonella typhi = assay: Expected efficacy of antibiotic agents; conditions: Gram: neg
Serratia marcescens = assay: Expected efficacy of antibiotic agents; conditions: Gram: neg
Shigella boydii = assay: Expected efficacy of antibiotic agents; conditions: Gram: neg
Shigella dysenteriae = assay: Expected efficacy of antibiotic agents; conditions: Gram: neg
Shigella flexneri = assay: Expected efficacy of antibiotic agents; conditions: Gram: neg
Shigella sonnei = assay: Expected efficacy of antibiotic agents; conditions: Gram: neg
Vibrio cholerae = assay: Expected efficacy of antibiotic agents; conditions: Gram: neg
Yersinia pestis = conditions: expected efficacy; Gram: neg
Corynebacterium jeikeium = assay: Expected efficacy of antibiotic agents; conditions: Gram: pos
Enterococcus faecium = assay: Expected efficacy of antibiotic agents; conditions: Gram: pos
[2] = tested on: Methicillin resistant staph aureus (MRSA); assay: Expected efficacy of antibiotic agents; conditions: Gram: pos
[3] = tested on: Staphylococcus epidermidis; assay: Expected efficacy of antibiotic agents; conditions: Gram: pos
Clostridium difficile = assay: Expected efficacy of antibiotic agents; conditions: Gram: anaer
Clostridium perfringens = conditions: expected efficacy; Gram: anaer
Chlamydia psittaci = conditions: expected efficacy; Gram: n/a
Chlamydia trachomatis = assay: Expected efficacy of antibiotic agents; conditions: Gram: n/a
Mycoplasma pneumoniae = assay: Expected efficacy of antibiotic agents; conditions: Gram: n/a
Acinetobacter baumannii = assay: Expected efficacy of antibiotic agents; conditions: Gram: neg
[4] = tested on: Acinetobacter calcoaceticus; assay: Expected efficacy of antibiotic agents; conditions: Gram: neg
Acinetobacter lwoffii = assay: Expected efficacy of antibiotic agents; conditions: Gram: neg
Bordetella pertussis = assay: Expected efficacy of antibiotic agents; conditions: Gram: neg
Brucella species = conditions: expected efficacy; Gram: neg
Enterobacter cloacae = assay: Expected efficacy of antibiotic agents; conditions: Gram: neg
Enterobacter sakazakii = assay: Expected efficacy of antibiotic agents; conditions: Gram: neg
[5] = tested on: Klebsiella (Calymmatobacterium) granulomatis; assay: Expected efficacy of antibiotic agents; conditions: Gram: neg
Enterococcus faecalis = assay: Expected efficacy of antibiotic agents; conditions: Gram: pos
[6] = tested on: Staphylococcus aureus (MSSA); assay: Expected efficacy of antibiotic agents; conditions: Gram: pos
Streptococcus agalactiae = assay: Expected efficacy of antibiotic agents; conditions: Gram: pos
Streptococcus pneumoniae = assay: Expected efficacy of antibiotic agents; conditions: Gram: pos
Streptococcus pyogenes = assay: Expected efficacy of antibiotic agents; conditions: Gram: pos
Haemophilus ducreyi = assay: Expected efficacy of antibiotic agents; conditions: Gram: neg
[7] = tested on: Corynebacterium urealyticum; assay: Expected efficacy of antibiotic agents; conditions: Gram: pos
Diphtheroids = assay: Expected efficacy of antibiotic agents; conditions: Gram: pos
Peptostreptococcus = assay: Expected efficacy of antibiotic agents; conditions: Gram: pos
[8] = tested on: Viridans group streptococci; assay: Expected efficacy of antibiotic agents; conditions: Gram: pos

SMILES: C[C@@H]1[C@H](O)[C@@H](C)/C=C/C=C/CC/C=C/C=C/C=C/C=C/C(O[C@H]2O[C@H](C)[C@@H](O)[C@H](N)[C@@H]2O)CC2O[C@](O)(CC(O)C(O)CCC(O)CC(O)CC(O)CC(=O)O[C@H]1C)CC(O)C2C(=O)O (stereo partly shown) [Nystatin]
- efficacy against Candida species (Candida species): yes

SMILES: O=C(O)c1cn(C2CC2)c2cc(N3CCNCC3)c(F)cc2c1=O [Ciprofloxacin]
- efficacy against Bacteroides fragilis (Bacteroides fragilis): no
- efficacy against Chlamydia pneumoniae (Chlamydia pneumoniae): yes
- efficacy against Bartonella bacilliformis (Bartonella bacilliformis): yes
- efficacy against Campylobacter jejuni (Campylobacter jejuni): yes
- efficacy against Citrobacter diversus (Citrobacter diversus): yes
- efficacy against Citrobacter freundii (Citrobacter freundii): yes
- efficacy against Enterobacter aerogenes (Enterobacter aerogenes): yes
- efficacy against Escherichia coli (Escherichia coli): yes
- efficacy against Francisella tularensis (Francisella tularensis): yes
- efficacy against Haemophilus influenzae (Haemophilus influenzae): yes
- efficacy against Haemophilus parainfluenzae [1]: yes
- efficacy against Klebsiella oxytoca (Klebsiella oxytoca): yes
- efficacy against Klebsiella pneumoniae (Klebsiella pneumoniae): yes
- efficacy against Legionella pneumophila (Legionella pneumophila): yes
- efficacy against Moraxella catarrhalis (Moraxella catarrhalis): yes
- efficacy against Morganella morganii (Morganella morganii): yes
- efficacy against Neisseria gonorrhoeae (Neisseria gonorrhoeae): yes
- efficacy against Neisseria meningitidis (Neisseria meningitidis): yes
- efficacy against Proteus mirabilis (Proteus mirabilis): yes
- efficacy against Proteus vulgaris (Proteus vulgaris): yes
- efficacy against Providencia rettgeri (Providencia rettgeri): yes
- efficacy against Providencia stuartii (Providencia stuartii): yes
- efficacy against Pseudomonas aeruginosa (Pseudomonas aeruginosa): yes
- efficacy against Pseudomonas fluorescens (Pseudomonas fluorescens): yes
- efficacy against Rickettsiae (Rickettsiae): yes
- efficacy against Salmonella typhi (Salmonella typhi): yes
- efficacy against Serratia marcescens (Serratia marcescens): yes
- efficacy against Shigella boydii (Shigella boydii): yes
- efficacy against Shigella dysenteriae (Shigella dysenteriae): yes
- efficacy against Shigella flexneri (Shigella flexneri): yes
- efficacy against Shigella sonnei (Shigella sonnei): yes
- efficacy against Vibrio cholerae (Vibrio cholerae): yes
- efficacy against Yersinia pestis (Yersinia pestis): yes
- efficacy against Corynebacterium jeikeium (Corynebacterium jeikeium): no
- efficacy against Enterococcus faecium (Enterococcus faecium): no
- efficacy against Methicillin resistant staph aureus (MRSA) [2]: no
- efficacy against Staphylococcus epidermidis [3]: yes

SMILES: CC[C@H]1OC(=O)[C@H](C)[C@@H](O[C@H]2C[C@@](C)(OC)[C@@H](O)[C@H](C)O2)[C@H](C)[C@@H](O[C@@H]2O[C@H](C)C[C@H](N(C)C)[C@H]2O)[C@](C)(O)C[C@@H](C)CN(C)[C@H](C)[C@@H](O)[C@]1(C)O [Azithromycin]
- efficacy against Bacteroides fragilis (Bacteroides fragilis): no
- efficacy against Clostridium difficile (Clostridium difficile): no
- efficacy against Clostridium perfringens (Clostridium perfringens): no
- efficacy against Chlamydia pneumoniae (Chlamydia pneumoniae): yes
- efficacy against Chlamydia psittaci (Chlamydia psittaci): yes
- efficacy against Chlamydia trachomatis (Chlamydia trachomatis): yes
- efficacy against Mycoplasma pneumoniae (Mycoplasma pneumoniae): yes
- efficacy against Acinetobacter baumannii (Acinetobacter baumannii): no
- efficacy against Acinetobacter calcoaceticus [4]: no
- efficacy against Acinetobacter lwoffii (Acinetobacter lwoffii): no
- efficacy against Bartonella bacilliformis (Bartonella bacilliformis): yes
- efficacy against Bordetella pertussis (Bordetella pertussis): yes
- efficacy against Brucella species (Brucella species): no
- efficacy against Campylobacter jejuni (Campylobacter jejuni): yes
- efficacy against Citrobacter diversus (Citrobacter diversus): no
- efficacy against Citrobacter freundii (Citrobacter freundii): no
- efficacy against Enterobacter aerogenes (Enterobacter aerogenes): no
- efficacy against Enterobacter cloacae (Enterobacter cloacae): no
- efficacy against Enterobacter sakazakii (Enterobacter sakazakii): no
- efficacy against Escherichia coli (Escherichia coli): no
- efficacy against Francisella tularensis (Francisella tularensis): no
- efficacy against Haemophilus influenzae (Haemophilus influenzae): yes
- efficacy against Klebsiella (Calymmatobacterium) granulomatis [5]: no
- efficacy against Klebsiella oxytoca (Klebsiella oxytoca): no
- efficacy against Klebsiella pneumoniae (Klebsiella pneumoniae): no
- efficacy against Legionella pneumophila (Legionella pneumophila): yes
- efficacy against Moraxella catarrhalis (Moraxella catarrhalis): yes
- efficacy against Morganella morganii (Morganella morganii): no
- efficacy against Neisseria meningitidis (Neisseria meningitidis): yes
- efficacy against Proteus mirabilis (Proteus mirabilis): no
- efficacy against Proteus vulgaris (Proteus vulgaris): no
- efficacy against Providencia rettgeri (Providencia rettgeri): no
- efficacy against Providencia stuartii (Providencia stuartii): no
- efficacy against Pseudomonas aeruginosa (Pseudomonas aeruginosa): no
- efficacy against Pseudomonas fluorescens (Pseudomonas fluorescens): no
- efficacy against Rickettsiae (Rickettsiae): yes
- efficacy against Serratia marcescens (Serratia marcescens): no
- efficacy against Vibrio cholerae (Vibrio cholerae): yes
- efficacy against Corynebacterium jeikeium (Corynebacterium jeikeium): no
- efficacy against Enterococcus faecalis (Enterococcus faecalis): no
- efficacy against Enterococcus faecium (Enterococcus faecium): no
- efficacy against Methicillin resistant staph aureus (MRSA) [2]: no
- efficacy against Staphylococcus aureus (MSSA) [6]: yes
- efficacy against Staphylococcus epidermidis [3]: yes
- efficacy against Streptococcus agalactiae (Streptococcus agalactiae): yes
- efficacy against Streptococcus pneumoniae (Streptococcus pneumoniae): yes
- efficacy against Streptococcus pyogenes (Streptococcus pyogenes): yes

SMILES: NC[C@H]1O[C@H](O[C@H]2[C@H](O)[C@@H](O[C@H]3O[C@H](CO)[C@@H](O)[C@H](N)[C@H]3O)[C@H](N)C[C@@H]2N)[C@H](N)C[C@@H]1O [Tobramycin]
- efficacy against Bacteroides fragilis (Bacteroides fragilis): no
- efficacy against Clostridium difficile (Clostridium difficile): no
- efficacy against Clostridium perfringens (Clostridium perfringens): no
- efficacy against Chlamydia pneumoniae (Chlamydia pneumoniae): no
- efficacy against Chlamydia psittaci (Chlamydia psittaci): no
- efficacy against Chlamydia trachomatis (Chlamydia trachomatis): no
- efficacy against Mycoplasma pneumoniae (Mycoplasma pneumoniae): no
- efficacy against Acinetobacter baumannii (Acinetobacter baumannii): no
- efficacy against Acinetobacter calcoaceticus [4]: no
- efficacy against Acinetobacter lwoffii (Acinetobacter lwoffii): no
- efficacy against Bordetella pertussis (Bordetella pertussis): no
- efficacy against Campylobacter jejuni (Campylobacter jejuni): yes
- efficacy against Citrobacter diversus (Citrobacter diversus): yes
- efficacy against Citrobacter freundii (Citrobacter freundii): yes
- efficacy against Enterobacter aerogenes (Enterobacter aerogenes): yes
- efficacy against Enterobacter cloacae (Enterobacter cloacae): yes
- efficacy against Enterobacter sakazakii (Enterobacter sakazakii): yes
- efficacy against Escherichia coli (Escherichia coli): yes
- efficacy against Haemophilus ducreyi (Haemophilus ducreyi): yes
- efficacy against Haemophilus influenzae (Haemophilus influenzae): yes
- efficacy against Klebsiella (Calymmatobacterium) granulomatis [5]: yes
- efficacy against Klebsiella oxytoca (Klebsiella oxytoca): yes
- efficacy against Klebsiella pneumoniae (Klebsiella pneumoniae): yes
- efficacy against Legionella pneumophila (Legionella pneumophila): no
- efficacy against Moraxella catarrhalis (Moraxella catarrhalis): yes
- efficacy against Neisseria gonorrhoeae (Neisseria gonorrhoeae): no
- efficacy against Neisseria meningitidis (Neisseria meningitidis): no
- efficacy against Proteus mirabilis (Proteus mirabilis): yes
- efficacy against Proteus vulgaris (Proteus vulgaris): yes
- efficacy against Pseudomonas aeruginosa (Pseudomonas aeruginosa): yes
- efficacy against Pseudomonas fluorescens (Pseudomonas fluorescens): yes
- efficacy against Serratia marcescens (Serratia marcescens): yes
- efficacy against Shigella boydii (Shigella boydii): yes
- efficacy against Shigella dysenteriae (Shigella dysenteriae): yes
- efficacy against Shigella flexneri (Shigella flexneri): yes
- efficacy against Shigella sonnei (Shigella sonnei): yes
- efficacy against Vibrio cholerae (Vibrio cholerae): no
- efficacy against Yersinia pestis (Yersinia pestis): yes
- efficacy against Corynebacterium jeikeium (Corynebacterium jeikeium): no
- efficacy against Corynebacterium urealyticum [7]: no
- efficacy against Diphtheroids (Diphtheroids): no
- efficacy against Enterococcus faecalis (Enterococcus faecalis): no
- efficacy against Enterococcus faecium (Enterococcus faecium): no
- efficacy against Methicillin resistant staph aureus (MRSA) [2]: no
- efficacy against Peptostreptococcus (Peptostreptococcus): no
- efficacy against Staphylococcus aureus (MSSA) [6]: no
- efficacy against Staphylococcus epidermidis [3]: no
- efficacy against Streptococcus agalactiae (Streptococcus agalactiae): no
- efficacy against Streptococcus pneumoniae (Streptococcus pneumoniae): no
- efficacy against Streptococcus pyogenes (Streptococcus pyogenes): no
- efficacy against Viridans group streptococci [8]: no
